Results from patent US6908919B2, “Substituted polycyclic aryl and heteroaryl pyrazinones useful for selective inhibition of the coagulation cascade” (Pharmacia Corporation, priority 1999, dated 2005).

Biological target: Human factor Xa (Homo sapiens, UniProt P00742)
Assay: Xa Assay
Assay type: biochemical
Parameters: purchased Enzyme Research Laboratories, South Bend Ind
Conditions: at 30 µM

Human factor Xa, sequence (P00742 41-179 limits assumed): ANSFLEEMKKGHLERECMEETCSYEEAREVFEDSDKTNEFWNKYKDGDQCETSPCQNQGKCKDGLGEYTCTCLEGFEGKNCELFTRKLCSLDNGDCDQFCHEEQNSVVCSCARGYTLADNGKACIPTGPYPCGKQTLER
Human factor Xa, sequence (P00742 235-488 limits assumed): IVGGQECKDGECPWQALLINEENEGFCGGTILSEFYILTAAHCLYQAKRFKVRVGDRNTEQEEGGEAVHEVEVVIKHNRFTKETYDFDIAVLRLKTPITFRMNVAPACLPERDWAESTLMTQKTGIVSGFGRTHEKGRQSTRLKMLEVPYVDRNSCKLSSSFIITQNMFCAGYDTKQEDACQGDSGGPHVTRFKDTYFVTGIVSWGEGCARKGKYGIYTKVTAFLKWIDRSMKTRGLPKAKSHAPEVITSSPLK

Compound | % Inhibition Factor Xa (30 µM) [%]
CC(C)CNc1nc(Cl)c(-c2cccc(N)c2)n(CC(=O)NCc2ccc(C(=N)N)cc2F)c1=O [1543-38] | 14
N=C(N)c1ccc(CNC(=O)Cn2c(-c3cccc(N)c3)c(Cl)nc(NC3CC3)c2=O)c(F)c1 [1543-33] | 14
CC(C)Nc1nc(Cl)c(-c2cccc(N)c2)n(CC(=O)NCc2ccc(C(=N)N)cc2F)c1=O [1543-40] | 10
N=C(N)c1ccc(CNC(=O)Cn2c(-c3cccc(N)c3)c(Cl)nc(NCCCn3ccnc3)c2=O)cc1 [1543-07] | 19
N=C(N)c1ccc(CNC(=O)Cn2c(-c3cccc(N)c3)c(Cl)nc(NC3CCC3)c2=O)c(F)c1 [1543-39] | 14
N=C(N)c1ccc(CNC(=O)Cn2c(-c3cccc(N)c3)c(Cl)nc(NCCCO)c2=O)cc1 [1543-13] | 12
CCCCCNc1nc(Cl)c(-c2ccccc2)n(CC(=O)NCc2ccc(C(=N)N)cc2)c1=O [Example 1517-48] | 0
N=C(N)c1ccc(CNC(=O)Cn2c(-c3c(Cl)cccc3Cl)c(Cl)nc(NCCc3ccccc3)c2=O)cc1 [Example 1517-18] | 0
C[Si](C)(C)CNc1nc(Cl)c(-c2ccccc2)n(CC(=O)NCc2ccc(C(=N)N)cc2)c1=O [Example 1517-36] | 0
CCCNc1nc(Cl)c(-c2cccc(N)c2)n(CC(=O)NCc2ccc(C(=N)N)cc2F)c1=O [1543-35] | 8
N=C(N)c1ccc(CNC(=O)Cn2c(-c3cccc(N)c3)c(Cl)nc(NCCCN3CCCC3)c2=O)cc1 [1543-27] | 27
CC(C)(C)CCNc1nc(Cl)c(-c2ccccc2)n(CC(=O)NCc2ccc(C(=N)N)cc2)c1=O [Example 1517-41] | 0
N=C(N)c1ccc(CNC(=O)Cn2c(-c3cccc(N)c3)c(Cl)nc(NC3CCCC3)c2=O)c(F)c1 [1543-34] | 20

Same assay, conditions: at 30 µM inhibitor

Compound | % Inhibition Factor Xa (30 µM)
CCOc1ccccc1CNc1nc(Cl)c(-c2ccccc2)n(CC(=O)NCc2ccc(C(=N)N)cc2)c1=O [1512-11] | 5%
N=C(N)c1ccc(CNC(=O)Cn2c(-c3ccccc3)c(Cl)nc(NCc3cc(Cl)ccc3Cl)c2=O)cc1 [1512-35] | 4%
COc1cccc(CNc2nc(Cl)c(-c3ccccc3)n(CC(=O)NCc3ccc(C(=N)N)cc3)c2=O)c1OC [1512-02] | 3%
CN(C)CCCNc1nc(Cl)c(-c2ccccc2)n(CC(=O)NCc2ccc(C(=N)N)cc2)c1=O [1507-47] | 19%
CCc1c(Cl)nc(NCCc2ccncc2)c(=O)n1CC(=O)NCc1ccc(C(=N)N)cc1 [1471-61] | 0%
CCCCNc1nc(Cl)c(-c2ccccc2)n(CC(=O)NCc2ccc(C(=N)N)cc2)c1=O [1512-14] | 7%
N=C(N)c1ccc(CNC(=O)Cn2c(-c3cccc(Cl)c3)c(Cl)nc(NCCc3ccccc3)c2=O)cc1 [1471-31] | 17%
N=C(N)c1ccc(CNC(=O)Cn2c(-c3ccccc3)c(Cl)nc(NCCC3=CCCCC3)c2=O)cc1 [1507-17] | 16%
N=C(N)c1ccc(CNC(=O)Cn2c(-c3ccccc3)c(Cl)nc(NCc3ccccc3Cl)c2=O)cc1 [1507-03] | 21%
N=C(N)c1ccc(CNC(=O)Cn2c(-c3ccccc3)c(Cl)nc(NC3CCS(=O)(=O)C3)c2=O)cc1 (stereo not shown) [1512-19] | 3%
N=C(N)c1ccc(CNC(=O)Cn2c(-c3ccccc3)c(Cl)nc(NCCCN3CCCC3=O)c2=O)cc1 [1507-19] | 4%
N=C(N)c1ccc(CNC(=O)Cn2c(-c3ccccc3)c(Cl)nc(NCc3cc(C(F)(F)F)cc(C(F)(F)F)c3)c2=O)cc1 [1507-40] | 11%
CC(C)Nc1nc(Cl)c(-c2cccnc2)n(CC(=O)NCc2ccc(C(=N)N)cc2)c1=O [Example 75] | 9%
N=C(N)c1ccc(CNC(=O)Cn2c(-c3ccccc3)c(Cl)nc(NC3CCCc4ccccc43)c2=O)cc1 (stereo not shown) [1507-16] | 18%
N=C(N)c1ccc(CNC(=O)Cn2c(-c3ccsc3)c(Cl)nc(NC3CCC3)c2=O)cc1 [Example 1517-07] | 0%
N=C(N)c1ccc(CNC(=O)Cn2c(-c3ccccc3)c(Cl)nc(NCc3cc(C(F)(F)F)ccc3F)c2=O)cc1 [1512-27] | 3%
C[C@H](C(=O)NCc1ccc(C(=N)N)cc1)n1c(-c2ccccc2)c(Cl)nc(NC2CCC2)c1=O [Example 1517-11] | 0%
N=C(N)c1ccc(CNC(=O)Cn2c(-c3ccccc3)c(Cl)nc(NC(c3ccccc3)c3ccccc3)c2=O)cc1 [1507-35] | 28%
CC(C)Nc1nc(Cl)c(-c2cccc(N)c2)n(CC(=O)NCCc2ccc(C(=N)N)cc2)c1=O [Example 62] | 10%
N=C(N)c1ccc(CNC(=O)Cn2c(-c3ccccc3O)c(Cl)nc(NC3CCC3)c2=O)cc1 [Example 66] | 0%
N=C(N)c1ccc(CNC(=O)Cn2c(-c3ccccc3)c(Cl)nc(NC3CCC3)c2=O)cc1 [1507-21] | 23%
N=C(N)c1ccc(CNC(=O)Cn2c(-c3ccccc3)c(Cl)nc(NC3CCc4ccccc43)c2=O)cc1 (stereo not shown) [1507-02] | 9%
N=C(N)c1ccc(CNC(=O)Cn2c(-c3ccc(Cl)cc3)c(Cl)nc(NCCc3ccc(Cl)cc3)c2=O)cc1 [1471-18] | 26%
N=C(N)c1ccc(CNC(=O)Cn2c(-c3ccccc3)c(Cl)nc(NCCN3CCOCC3)c2=O)cc1 [1471-12] | 9%
N=C(N)c1ccc(CNC(=O)Cn2c(-c3ccc4c(c3)OCO4)c(Cl)nc(NCCc3ccncc3)c2=O)cc1 [1471-45] | 24%
CN1CCCC1CCNc1nc(Cl)c(-c2ccccc2)n(CC(=O)NCc2ccc(C(=N)N)cc2)c1=O (stereo not shown) [1512-46] | 10%
N=C(N)c1ccc(CNC(=O)Cn2c(-c3ccccc3)c(Cl)nc(NCCc3ccncc3)c2=O)cc1 [1471-13] | 0%

Compound | % Inhibition Factor Xa (30 µM)
CCCCC(CC)Nc1nc(Cl)c(-c2ccccc2)n(CC(=O)NCc2ccc(C(=N)N)cc2)c1=O (stereo not shown) [1512-12] | 5%
N=C(N)c1ccc(CNC(=O)Cn2c(-c3cccc(Cl)c3)c(Cl)nc(NCc3ccccc3)c2=O)cc1 [1471-25] | 31%
COC(=O)c1cccc(-c2c(Cl)nc(NC(C)C)c(=O)n2CC(=O)NCc2ccc(C(=N)N)cc2)c1 [Example 64] | 19%
C[C@@H](C(=O)NCc1ccc(C(=N)N)cc1)n1c(-c2ccccc2)c(Cl)nc(NC2CCC2)c1=O [Example 1517-09] | 0%
N=C(N)c1ccc(CNC(=O)Cn2c(-c3ccccc3)c(Cl)nc(NCCCc3ccccc3)c2=O)cc1 [1512-06] | 4%
N=C(N)c1ccc(CNC(=O)Cn2c(-c3ccccc3)c(Cl)nc(NCCc3cccc(C(F)(F)F)c3)c2=O)cc1 [1512-41] | 4%
Cc1cccc(-c2cnc(NCCc3ccccc3)c(=O)n2CC(=O)NCc2ccc(C(=N)N)cc2)c1 [Example 85] | 42% @ 30
CC(C)Nc1nc(Cl)c(-c2cccc(N)c2)n(CC(=O)NCc2ccc(C(=N)N)c(F)c2)c1=O [Example 42] | 0%
N=C(N)c1ccc(CNC(=O)Cn2c(-c3ccccc3)c(Cl)nc(NCc3ccc(C(F)(F)F)cc3F)c2=O)cc1 [1512-26] | 5%
CC1CCCC(Nc2nc(Cl)c(-c3ccccc3)n(CC(=O)NCc3ccc(C(=N)N)cc3)c2=O)C1C (stereo not shown) [1512-23] | 6%
N=C(N)c1ccc(CNC(=O)Cn2c(-c3ccccc3)c(Cl)nc(NCc3cc(F)ccc3F)c2=O)cc1 [1512-36] | 9%
N=C(N)c1ccc(CNC(=O)Cn2c(-c3ccsc3)c(Cl)nc(NCc3ccccc3)c2=O)cc1 [Example 1517-01] | 0%
Nc1n[nH]c2cc(CNC(=O)Cn3c(-c4ccccc4)cnc(NCCc4ccccc4)c3=O)ccc12 [Example 39] | 0%
COc1ccc(CCNc2nc(Cl)c(-c3ccccc3)n(CC(=O)NCc3ccc(C(=N)N)cc3)c2=O)cc1OC [1512-05] | 10%
CN(C)CCNc1nc(Cl)c(-c2ccccc2)n(CC(=O)NCc2ccc(C(=N)N)cc2)c1=O [1512-15] | 6%
CSCC(C(=O)NCc1ccc(C(=N)N)cc1)n1c(-c2ccccc2)c(Cl)nc(NCc2ccccc2)c1=O (stereo not shown) [Example 1517-04] | 0%
C[C@H](C(=O)NCc1ccc(C(=N)N)cc1)n1c(-c2ccccc2)c(Cl)nc(NCc2ccccc2)c1=O [Example 1517-05] | 0%
Cc1c(Cl)nc(NCCc2cccnc2)c(=O)n1CC(=O)NCc1ccc(C(=N)N)cc1 [1471-8] | 27%
Cc1c(Cl)nc(NCCc2cccc(Cl)c2)c(=O)n1CC(=O)NCc1ccc(C(=N)N)cc1 [1471-6] | 14%
N=C(N)c1ccc(CNC(=O)Cn2c(-c3ccc4c(c3)OCO4)c(Cl)nc(NCCc3ccccc3)c2=O)cc1 [1471-47] | 22%
N=C(N)c1ccc(CNC(=O)Cn2c(-c3ccccc3)c(Cl)nc(NCc3c(F)cccc3F)c2=O)cc1 [1512-43] | 9%
CC(C)Nc1nc(Cl)c(-c2ccc(Cl)nc2)n(CC(=O)NCc2ccc(C(=N)N)cc2F)c1=O [Example 74] | 13%
N=C(N)c1ccc(CNC(=O)Cn2c(-c3ccc4ccccc4c3)c(Cl)nc(NCCc3ccccc3)c2=O)cc1 [Example 82] | 32% @ 30
N=C(N)c1ccc(CNC(=O)Cn2c(-c3ccc4c(c3)OCO4)c(Cl)nc(NCCc3ccc(Cl)cc3)c2=O)cc1 [1471-42] | 15%
N=C(N)c1ccc(CNC(=O)Cn2c(-c3cccc(Cl)c3)c(Cl)nc(NCCc3ccncc3)c2=O)cc1 [1471-29] | 21%
C[C@@H](C(=O)NCc1ccc(C(=N)N)cc1)n1c(-c2ccccc2)c(Cl)nc(NCc2ccccc2)c1=O [Example 1517-03] | 0%

Same assay, conditions: inhibitor at 100 µM

Compound | % Inhibition Factor Xa (100 µM) [%]
O=C(Cn1c(-c2ccc(Cl)cc2)c(Cl)nc(NCCN2CCOCC2)c1=O)NCCc1ccncc1 [Example E-0031] | 0
